What was measured:
Assay type in all cases: functional
Settings in all cases: at 10 µM
CCRF-CEM = experiment: Growth inhibition of human CCRF-CEM cells after 48 hrs by cell counting analysis
HL-60 = experiment: Growth inhibition of human HL60 cells after 48 hrs by cell counting analysis
K562 = experiment: Growth inhibition of human K562 cells after 48 hrs by cell counting analysis
RPMI-8226 = experiment: Growth inhibition of human RPMI8226 cells after 48 hrs by cell counting analysis
SR = experiment: Growth inhibition of human SR cells after 48 hrs by cell counting analysis
A549 = experiment: Growth inhibition of human A549 cells after 48 hrs by cell counting analysis
EKVX = experiment: Growth inhibition of human EKVX cells after 48 hrs by cell counting analysis
HOP-62 = experiment: Growth inhibition of human HOP62 cells after 48 hrs by cell counting analysis
HOP-92 = experiment: Growth inhibition of human HOP92 cells after 48 hrs by cell counting analysis
NCI-H226 = experiment: Growth inhibition of human NCI-H226 cells after 48 hrs by cell counting analysis
NCI-H23 = experiment: Growth inhibition of human NCI-H23 cells after 48 hrs by cell counting analysis
[1] = Growth inhibition of human NCI-322M cells after 48 hrs by cell counting analysis
NCI-H522 = experiment: Growth inhibition of human NCI-H522 cells after 48 hrs by cell counting analysis
HCC 2998 = experiment: Growth inhibition of human HCC2998 cells after 48 hrs by cell counting analysis
HCT-15 = experiment: Growth inhibition of human HCT15 cells after 48 hrs by cell counting analysis
HT-29 = experiment: Growth inhibition of human HT-29 cells after 48 hrs by cell counting analysis
KM12 = experiment: Growth inhibition of human KM12 cells after 48 hrs by cell counting analysis
SW-620 = experiment: Growth inhibition of human SW620 cells after 48 hrs by cell counting analysis
SF-268 = experiment: Growth inhibition of human SF268 cells after 48 hrs by cell counting analysis
SF-295 = experiment: Growth inhibition of human SF295 cells after 48 hrs by cell counting analysis
SF-539 = experiment: Growth inhibition of human SF539 cells after 48 hrs by cell counting analysis
SNB-19 = experiment: Growth inhibition of human SNB19 cells after 48 hrs by cell counting analysis
SNB-75 = experiment: Growth inhibition of human SNB75 cells after 48 hrs by cell counting analysis
U-251 = experiment: Growth inhibition of human U251 cells after 48 hrs by cell counting analysis
LOX IMVI = experiment: Growth inhibition of human LOXIMVI cells after 48 hrs by cell counting analysis
Malme-3M = experiment: Growth inhibition of human MALME-3M cells after 48 hrs by cell counting analysis
M14 = experiment: Growth inhibition of human M14 cells after 48 hrs by cell counting analysis
MDA-MB-435 = experiment: Growth inhibition of human MDA-MB-435 cells after 48 hrs by cell counting analysis
SK-MEL-2 = experiment: Growth inhibition of human SK-MEL-2 cells after 48 hrs by cell counting analysis
SK-MEL-28 = experiment: Growth inhibition of human SK-MEL-28 cells after 48 hrs by cell counting analysis
SK-MEL-5 = experiment: Growth inhibition of human SK-MEL-5 cells after 48 hrs by cell counting analysis
UACC-257 = experiment: Growth inhibition of human UACC257 cells after 48 hrs by cell counting analysis
UACC-62 = experiment: Growth inhibition of human UACC62 cells after 48 hrs by cell counting analysis
IGROV-1 = experiment: Growth inhibition of human IGROV1 cells after 48 hrs by cell counting analysis
OVCAR-3 = experiment: Growth inhibition of human OVCAR3 cells after 48 hrs by cell counting analysis
OVCAR-4 = experiment: Growth inhibition of human OVCAR4 cells after 48 hrs by cell counting analysis
OVCAR-5 = experiment: Growth inhibition of human OVCAR5 cells after 48 hrs by cell counting analysis
OVCAR-8 = experiment: Growth inhibition of human OVCAR8 cells after 48 hrs by cell counting analysis
[2] = Growth inhibition of human NCI-ADR-RES cells after 48 hrs by cell counting analysis
SK-OV-3 = experiment: Growth inhibition of human SKOV3 cells after 48 hrs by cell counting analysis
ACHN = experiment: Growth inhibition of human ACHN cells after 48 hrs by cell counting analysis
CAKI-1 = experiment: Growth inhibition of human Caki1 cells after 48 hrs by cell counting analysis
RXF 393 = experiment: Growth inhibition of human RXF393 cells after 48 hrs by cell counting analysis
SN12C = experiment: Growth inhibition of human SN12C cells after 48 hrs by cell counting analysis
TK-10 = experiment: Growth inhibition of human TK10 cells after 48 hrs by cell counting analysis
UO-31 = experiment: Growth inhibition of human UO31 cells after 48 hrs by cell counting analysis
PC-3 = experiment: Growth inhibition of human PC3 cells after 48 hrs by cell counting analysis
MCF7 = experiment: Growth inhibition of human MCF7 cells after 48 hrs by cell counting analysis
MDA-MB-231 = experiment: Growth inhibition of human MDA-MB-231 cells after 48 hrs by cell counting analysis
BT-549 = experiment: Growth inhibition of human BT549 cells after 48 hrs by cell counting analysis
T47D = experiment: Growth inhibition of human T47D cells after 48 hrs by cell counting analysis
MDA-MB-468 = experiment: Growth inhibition of human MDA-MB-468 cells after 48 hrs by cell counting analysis
MOLT-4 = experiment: Growth inhibition of human MOLT4 cells after 48 hrs by cell counting analysis
HCT-116 = experiment: Growth inhibition of human HCT116 cells after 48 hrs by cell counting analysis

Structure (SMILES): Cn1cc(NC(=O)c2cc(NC(=O)CNC(=N)N)cn2C)cc1C(=O)NCCC(=N)N [NETROPSIN]
- growth inhibition (GI) (CCRF-CEM): 15.3%
- growth inhibition (GI) (HL-60): 12.6%
- growth inhibition (GI) (K562): 25.1%
- growth inhibition (GI) (RPMI-8226): 28.9%
- growth inhibition (GI) (SR): <10%
- growth inhibition (GI) (A549): 10.3%
- growth inhibition (GI) (EKVX): 19.5%
- growth inhibition (GI) (HOP-62): 10.9%
- growth inhibition (GI) (HOP-92): <10%
- growth inhibition (GI) (NCI-H226): 14.5%
- growth inhibition (GI) (NCI-H23): 13.9%
- growth inhibition (GI) [1]: 11.1%
- growth inhibition (GI) (NCI-H522): 28.2%
- growth inhibition (GI) (HCC 2998): <10%
- growth inhibition (GI) (HCT-15): <10%
- growth inhibition (GI) (HT-29): 10.8%
- growth inhibition (GI) (KM12): <10%
- growth inhibition (GI) (SW-620): <10%
- growth inhibition (GI) (SF-268): <10%
- growth inhibition (GI) (SF-295): 14.4%
- growth inhibition (GI) (SF-539): <10%
- growth inhibition (GI) (SNB-19): 10.5%
- growth inhibition (GI) (SNB-75): 29.8%
- growth inhibition (GI) (U-251): <10%
- growth inhibition (GI) (LOX IMVI): <10%
- growth inhibition (GI) (Malme-3M): 12.4%
- growth inhibition (GI) (M14): <10%
- growth inhibition (GI) (MDA-MB-435): <10%
- growth inhibition (GI) (SK-MEL-2): <10%
- growth inhibition (GI) (SK-MEL-28): <10%
- growth inhibition (GI) (SK-MEL-5): 23.7%
- growth inhibition (GI) (UACC-257): <10%
- growth inhibition (GI) (UACC-62): 29%
- growth inhibition (GI) (IGROV-1): 17.4%
- growth inhibition (GI) (OVCAR-3): <10%
- growth inhibition (GI) (OVCAR-4): <10%
- growth inhibition (GI) (OVCAR-5): <10%
- growth inhibition (GI) (OVCAR-8): <10%
- growth inhibition (GI) [2]: 17%
- growth inhibition (GI) (SK-OV-3): <10%
- growth inhibition (GI) (ACHN): <10%
- growth inhibition (GI) (CAKI-1): 28.9%
- growth inhibition (GI) (RXF 393): <10%
- growth inhibition (GI) (SN12C): <10%
- growth inhibition (GI) (TK-10): <10%
- growth inhibition (GI) (UO-31): 30.6%
- growth inhibition (GI) (PC-3): 17.8%
- growth inhibition (GI) (MCF7): 13.7%
- growth inhibition (GI) (MDA-MB-231): 23.4%
- growth inhibition (GI) (BT-549): 12.9%
- growth inhibition (GI) (T47D): 25.2%
- growth inhibition (GI) (MDA-MB-468): 25.7%
- growth inhibition (GI) (MOLT-4): 33.2%
- growth inhibition (GI) (HCT-116): 10.7%

From ChEMBL document CHEMBL2150993, “Substituted thiazoles VII. Synthesis and antitumor activity of certain 2-(substituted amino)-4-phenyl-1,3-thiazole analogs” (2012)
